From paper PMC9103942, “A Tumor-Homing Peptide Platform Enhances Drug Solubility, Improves Blood–Brain Barrier Permeability and Targets Glioblastoma” (Cancers, 2022)

Key:
[1] = Serum stability, human serum; assay type: in vitro ADME; details: 25% human serum; for half-life at 70 µM: human, LC-MS, normalized to EIC at t = 0
[2] = design: method as in PMID 33997269; details: cited from earlier work
[3] = Compound solubility in saline vs pure DMSO (LC-MS of supernatant); assay type: physicochemical; details: room temperature 5 min, centrifuged, LC-MS EIC
Protocol: Dried powder of each compound was first resuspended in pure DMSO to form a 10 mm stock. Each stock was then diluted in saline (0.9% NaCl) to form an aqueous solution of 100 µm (final DMSO 1% (v/v)) or 1.3 mM (final DMSO 10% (v/v)) of each compound. The samples were incubated at room temperature for 5 min, then centrifuged at 10,000 rcf for 10 min to pellet any precipitates. 5 µL of supernatant was diluted into LC-MS vials containing 100 µL of 50:50 water:acetonitrile with 0.1% TFA additive and analyzed by LC-MS. The presence of soluble compound in each supernatant was determined by quantifying the ion count in the extracted ion chromatogram (EIC) using the MassHunter software. Solubility was measured by comparing the total EIC of the sample diluted in saline vs. in pure DMSO. Each sample was measured in duplicates.
To test the solubility of each compound in aqueous solution, a 10 mm stock of each compound in pure DMSO was diluted in saline solution (0.9% sodium chloride in water) to a final concentration of either 100 µm or 1.3 mm. The samples were incubated at room temperature for 5 min and centrifuged to remove any precipitate. The supernatant was analyzed by liquid chromatography–mass spectrometry (LC-MS). To quantify solubility, the extracted ion count from samples diluted in saline was normalized to samples diluted in pure DMSO.

[4] = molecular target: T1, recombinant dg-Bcan protein (Homo sapiens, UniProt Q96GW7); experiment: Octet binding kinetic analysis (steady state) to recombinant dg-Bcan; details: one site specific binding fit, Octet RED
T1 construct: purchased R&D Systems 4009-BC-050
T1 sequence (Q96GW7 23-911): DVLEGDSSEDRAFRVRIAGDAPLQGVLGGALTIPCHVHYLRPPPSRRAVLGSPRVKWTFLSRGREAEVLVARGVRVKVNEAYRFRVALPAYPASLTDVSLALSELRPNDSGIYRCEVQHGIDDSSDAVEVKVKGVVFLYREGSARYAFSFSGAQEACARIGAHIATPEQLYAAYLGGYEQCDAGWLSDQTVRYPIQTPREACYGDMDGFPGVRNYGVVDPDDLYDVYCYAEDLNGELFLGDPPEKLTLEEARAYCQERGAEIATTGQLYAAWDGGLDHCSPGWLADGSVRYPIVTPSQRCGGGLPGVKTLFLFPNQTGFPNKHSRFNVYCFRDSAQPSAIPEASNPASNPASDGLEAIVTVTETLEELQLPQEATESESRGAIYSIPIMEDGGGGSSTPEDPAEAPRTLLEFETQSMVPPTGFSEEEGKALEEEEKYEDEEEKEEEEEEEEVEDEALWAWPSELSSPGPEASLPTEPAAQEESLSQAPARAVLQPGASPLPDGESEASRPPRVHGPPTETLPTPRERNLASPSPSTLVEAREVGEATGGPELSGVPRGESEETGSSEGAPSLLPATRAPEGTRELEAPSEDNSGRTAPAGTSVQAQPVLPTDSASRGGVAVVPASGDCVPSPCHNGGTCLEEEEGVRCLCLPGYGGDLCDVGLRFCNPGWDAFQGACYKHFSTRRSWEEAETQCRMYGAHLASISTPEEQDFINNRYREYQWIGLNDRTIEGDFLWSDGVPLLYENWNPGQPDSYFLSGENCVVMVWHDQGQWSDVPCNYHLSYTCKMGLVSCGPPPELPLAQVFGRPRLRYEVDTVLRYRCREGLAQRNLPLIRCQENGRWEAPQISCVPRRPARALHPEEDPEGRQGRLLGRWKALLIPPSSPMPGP
Protocol: Figure 3 Cytotoxicity of BTP-7-CPT. (a) Western blot showing expression of dg-Bcan in patient-derived GBM-X6 cells, as well as in Bcan-overexpressing HEK cells (HEK-Bcan). (b) Binding kinetics analysis (steady-state) of BTP-7-CPT (red) and unmodified CPT (blue) to recombinant dg-Bcan protein using the ForteBio Octet system. Rmax (maximal response in response unit) and KD (dissociation constant) were calculated using a non-linear regression (one site specific binding) fit using the Graphpad Prism software. (c) Luminescent cell viability (CellTiter-Glo) of GBM-X6 cells treated with BTP-7-CPT (nwells = 3) for 72 h. (d) Luminescent cell viability (CellTiter-Glo) of GS401 recurrent GBM cells treated with BTP-7-CPT (nwells = 3) for 72 h. All IC50 values were measured through the non-linear ‘log(inhibitor) vs. response—variable slope (four parameters)’ fit. […] Statistical significance was calculated using a two-way ANOVA, Sidak’s multiple comparisons test (* p < 0.05, *** p < 0.001, **** p < 0.0001). […]
Infrared spectroscopy (IR). Infrared spectra (IR) were recorded on a Bruker Alpha II FTIR. […]
Then, biosensors were exposed to the analyte (peptide) in working buffer (ranging between 0– 10 µM BTP) for 300 s during the ‘association’ step. […] Binding affinity of each peptide was assessed through steady state analysis, where the response unit was plotted over peptide concentration. […]

[5] = Ex vivo serum stability assay, mouse serum; assay type: in vitro ADME; details: 25% mouse serum, over 12 h
Protocol: Mouse serum was obtained from 8–10-week-old athymic female mice. Mice were euthanized by CO2 asphyxiation with secondary decapitation to ensure death. An incision was made from the neck to the abdomen and the thorax was cut to expose the heart. An amount of 100 µL of heparin was then injected directly into the right atrium to prevent the blood from clotting. A cardiac puncture was performed by piercing the left ventricle with a 21G needle to remove 400–1000 µL of blood. Blood from five mice was collected and combined in a 10-mL centrifuge tube and centrifuged for 5 min at 500 rcf at 4 °C. The top layer containing the serum (opaque) was removed and stored at −20 °C.
To test for serum stability, a 10 mM stock of BTP-7-CPT and Scr-7-CPT was prepared in DMSO. Each compound (1.4 µL) was transferred into a microcentrifuge tube containing 200 µL of PBS with 25% mouse serum, or in PBS alone, and incubated at 37 °C (final concentration 70 μm). […] Samples containing the peptide were eluted with 10 µL of 70% acetonitrile in water containing 0.1% TFA into an LC-MS vial containing 20 µL of water with 0.1% TFA additive and analyzed via LC-MS. The amount of intact compound was determined through quantifying the ion count in the extracted ion chromatogram (EIC) using the MassHunter software. […]

Row | Structure (SMILES) | half-life at 70 µM [1] [h] | remaining at 24 h ([1]; after 24 h of incubation, read-out: peptide still intact) [%] | stability in mouse serum [2] | soluble compound present in saline relative to in pure DMSO ([3]; 1.3 mm in saline (0.9% NaCl), 10% DMSO) | soluble compound present in saline relative to in pure DMSO ([3]; 100 µm in saline (0.9% NaCl), 1% DMSO) [%] | KD (dissociation constant) [4] | stability in mouse serum (detectable compound vs PBS) [5]
1 | CC(C)[C@@H](NC(=O)[C@@H](Cc1c[nH]cn1)NC(=O)CNC(=O)[C@@H](Cc1c[nH]c2ccccc12)NC(=O)[C@@H](CCCCN)NC(=O)[C@H](N)[C@H](C)O)C(=O)N[C@H](CC(N)=O)C(=O)N[C@H](CCCCN)C(=O)NCCCCCC(=O)N[C@@H](CS)C(N)=O [BTP-7-X-Cys] | 0.16 | – | – | – | – | – | –
2 | CC(C)[C@@H](NC(=O)[C@@H](Cc1c[nH]cn1)NC(=O)CNC(=O)[C@@H](Cc1c[nH]c2ccccc12)NC(=O)[C@@H](CCCCN)NC(=O)[C@H](N)[C@H](C)O)C(=O)N[C@H](CC(N)=O)C(=O)N[C@H](CCCCN)C(=O)NCCCCCC(N)=O [BTP-7-X] | 4.4 | ~40 | stable in mouse serum | – | – | – | –
3 | CC[C@@]1(O)C(=O)OCc2c1cc1n(c2=O)Cc2cc3ccccc3nc2-1 [CPT, camptothecin] | – | – | – | practically undetectable | 30 | did not exhibit any affinity | no decline in detectable compound over 12 h
